Measured values as given in PMC13195669, “GPR3 Ligands Discovered through Combined Virtual and Conformational Biosensor-Based Screening” (Journal of the American Chemical Society, 2026).

Test system: β2AR
Test: β2AR-HaloTag/Nluc conformational biosensor (negative control) in HEK293A cells
Assay type: cell-based, human
Settings: β2AR-HaloTag/Nluc as negative control; HEK293A stable
Experimental: Initially, all 93 molecules were tested for activity at the GPR3 biosensor at a concentration of 1 μM (Figure a). […] Of the five compounds that emerged from the virtual screen, three–hereafter referred to as virtual hit 1–3, VH1/2/3–were selected for in-house chemical synthesis (compounds 52, 93, and 115; cf. Scheme , Figure S6), providing compounds of ≥99% purity for hit validation (NMR spectra: Figures S7–S142; HPLC purity: Figures S143–S218). For VH1, the racemic mix, rac-VH1/52, was synthesized and used for testing. Compounds 52, VH2/93, and VH3/115 (Figure S6) were then validated with the GPR3 biosensor including β2AR-HaloTag/Nluc as a negative control.
BRET-based GPCR conformational sensor experiments
Cells expressing the conformational GPCR biosensors were grown for 24 h (stable cells) or 48 h (transiently transfected cells) in white 96-well plates and washed with 100 µl of HBSS. After washing, cells were incubated for 2 minutes with a 1/1000 solution of the furimazine stock solution (Promega; cat. no. N1662). Three baseline BRET reads were recorded and averaged prior to the addition of serial dilutions of ligands or veh icle control and subsequent BRET reads. All experiments were con-ducted at 37 °C. BRE T donor emission was quantified with a 470/80 nm monochromator. BRET acceptor emission was quan-tified using a 660/100 nm monochromator. Experiments were carried out using a CLARIOstar plate reader. […]
FRET and BRET ratios were defined as acceptor emission/donor emission. […] To quantify ligand-induced changes ΔFRET and ΔBRET were calculated for each well as a percent over basal ([(Ratiostim − Ratiobasal)/Ratiobasal] × 100). […]
Data from FRET/BRET experiments were fitted using a three-parameter fit. Z-factors expressing the high-throughput suita-bility were calculated with the following equation: […]
Commercially available chemicals and solvents were purchased from standard commercial suppliers (Merck (Darmstadt, Ger-many), Sigma-Aldrich (Munich, Germany), Acros Organics (Geel, Belgium), Alfa Aesar (Karlsruhe, Germany), abcr (Karlsruhe, Germany), BLD Pharmatech (Reinbek, Germany) or TCI Europe (Zwijndrecht, Belgium) and were used as received. Deuter-ated solvents for nuclear magnetic resonance (1H NMR and 13C NMR) spectra were purchased from Deutero GmbH (Kastel-laun, Germany). All reactions carried out with dry solvents were accomplished in dry flasks under nitrogen or argon atmos-phere. For the preparation of buffers, HPLC eluents, and stock solutions millipore water was used. […] The reactions were monitored by thin layer chromatography (TLC) on Merck silica gel 60 F254 aluminium sheets and spots were visualized under UV light at 254 nm, by potassium permanganate or ninhydrin staining. […]

N=c1n(Cc2ccccc2)c2ccccc2n1CC1CC1 [compound 33]
specificity of conformational response for GPR3 vs β2AR-HaloTag/Nluc: selectivity for GPR3 over β2AR

N=c1n(Cc2ccccc2)c2ccccc2n1CC(O)COc1ccc(Cl)cc1 (stereo not drawn) [compound 52]
specificity of conformational response for GPR3 vs β2AR-HaloTag/Nluc: concentration-dependent and GPR3-specific conformational changes

Cc1ccc(NC(=O)CN2CCN(C(=O)CCc3ccc(Cl)cc3)CC2)cc1 [compound 115]
specificity of conformational response for GPR3 vs β2AR-HaloTag/Nluc: concentration-dependent and GPR3-specific conformational changes
